Laboratory results: patent publication EP0555116B1, “Compositions based on antiseptics and their applications” (HUTCHINSON, priority 1992, dated 1993)
Where two headings read alike, the source gives them in different places.

Assays:
virus HIV1 = assay: Infectivity of HIV1 for normal human T lymphocytes after 10 min treatment of the virus; reverse transcriptase activity (ATI) in culture supernatants; format: cell-based
Description: Pour l'étude du pouvoir infectieux résiduel après traitement des préparations virales, le milieu de culture des lymphocytes T humains normaux (milieu complet) correspond au milieu ci-dessus auquel sont ajoutés 10 % d'interleukine II, du polybrène (2 µg/ml) et du sérum anti-interféron humain 1/2500 (M.A. REY et al., Biochem. Biophys. Res. Com., 1984, 121, 126-133).
L'infectivité est étudiée sur des lymphocytes T obtenus à partir du sang périphérique d'un donneur humain sain, et séparés sur un gradient de Ficoll.
Les lymphocytes sont stimulés pendant 3 jours par de la phytohémagglutinine P (PHA-P), diluée au 1/500 et cultivés dans du milieu complet. Les cellules T blastiques sont infectées par le virus, traité ou non, pour mettre en évidence le pouvoir infectieux résiduel.
Le virus est obtenu à partir d'un surnageant de culture de la lignée CEM infectée par HIV1. Cette lignée T lymphoblastoïde infectée par HIV1 est utilisée pour la production virale.
Le titre des surnageants utilisés est évalué après dosage de l'activité transcriptase inverse (ATI) du virus.
Dans les essais qui suivent, on a utilisé un surnageant dont l'ATI est de 1,8.10^6 cpm/ml. 2. Méthodes :
• Préparation de la solution virale : plusieurs tubes contenant 1 ml de surnageant viral, ATI 1,8.10^6 cmp/ml sont concentrés par ultracentrifugation. Les culots de virus ainsi obtenus sont repris soit par chacune des dilutions de produit réalisées dans de l'eau bidistillée stérile, soit par de l'eau (virus témoin non traité). • Traitement des préparations virales : les préparations virales concentrées sont toutes traitées selon le protocole indiqué ci-dessous : • . échantillons viraux traités : les culots de virus concentrés par ultracentrifugation sont resuspendus dans 100 µl de chacune des concentrations en produits étudiés et incubés pendant 10 minutes. • . échantillon viral témoin : témoin virus non traité : le produit est remplacé par 100 µl d'eau bidistillée stérile. A la suite de ce temps d'incubation de 10 minutes, le virus présent dans chaque échantillon est rincé puis reconcentré par addition de 12 ml de milieu RPMI 1640 et ultracentrifugation. Les culots de virus sont alors repris dans 1 ml de milieu complet et utilisés pour l'infection de lymphocytes T humains normaux. • Mesure de l'infectivité des échantillons : 4.10^6 lymphocytes T humains normaux sont infectés avec chacune des préparations virales traitées ou témoins indiquées ci-dessus. L'infection des cellules T est réalisée selon une méthode précédemment décrite (F. BARRE-SINOUSSI et al., Science, 1983, 220, 868-871) : en résumé 4.10^6 cellules en suspension dans 1 ml de milieu complet sont incubées avec 1 ml de chacune des préparations virales traitées ou témoins pendant 1 heure à 37°C. Après 2 lavages par plusieurs ml de milieu de culture, les suspensions cellulaires sont ajustées à la concentration de 1.10^6 cellules par ml. Le jour de l'infection est considéré comme jour 0. • . Cellules témoin : 4.10^6 lymphocytes T sont cultivés et passés tous les 3 ou 4 jours dans les mêmes conditions que tous les autres échantillons. Ce témoin correspond au témoin négatif de la production virale au cours de la manipulation. La production virale au cours du temps est déterminée en mesurant l'activité transcriptase inverse présente dans les surnageants de culture selon le protocole décrit ci-dessous. • . Mesure de l'activité transcriptase inverse des préparations virales témoins et des échantillons viraux traités par les produits : ce dosage permet d'évaluer la présence de virus résiduel non inactivé dans l'échantillon de départ. Il est réalisé à partir de 1 ml de surnageant de culture, prélevé tous les 3 ou 4 jours et ultracentrifugé.
Les activités enzymatiques sont mesurées dans 50 µl d'un mélange réactionnel contenant 50 mM Tris pH 7,8, 20 mM MgCl2, 20 mM KCl, 2 mM dithiotréitol, 0,25 OD/ml oligo dT, 0,25 OD/ml poly rA, 0,1 % Triton X 100 et 2,5 µCi 3H DTTP. […]

spermatozoïdes = assay: Spermicidal action: vitality of spermatozoa (eosin-nigrosin, 100 spermatozoa examined); format: cell-based; details: Homo sapiens, Sperm, solution 0,5 %, read-out: vitalité des spermatozoïdes
Description: Les différents échantillons de sperme (une goutte de sperme/échantillon) sont obtenus à partir de volontaires sains.
Une goutte de sperme est traitée par l'éosinenigrosine. Un frottis est ensuite réalisé et cent spermatozoïdes sont examinés au microscope. Les cellules mortes sont colorées en rouge, soit totalement, soit partiellement. Les cellules vivantes sont incolores.
Les substances étudiées ont été, le Bardac® et le digluconate de chlorhexidine, testés seuls et en association conformément à l'invention. Les différentes étapes du protocole sont indiquées aux Tableaux IV à VI.
Le temps de contact maximum des différentes substances et du sperme a été limité à 3 minutes afin de garantir l'efficacité de la méthode dans les conditions d'utilisation. La concentration des solutions actives dans le sperme a été limitée à 10 % afin de diminuer les risques de toxicité des produits pour les muqueuses. TABLEAU IV

With `[H]/N=C(\N/C(=N/[H])NCCCCCCNC(=N)NC(=N)Nc1ccc(Cl)cc1)Nc1ccc(Cl)cc1` [Chlorhexidine, digluconate de chlorhexidine, reference compound] the “ATI dans les surnageants” value (virus HIV1; Chlorhexidine 0,01 %, J3) was 262 cpm/ml, the “ATI dans les surnageants” value (virus HIV1; Chlorhexidine 0,01 %, J6) was 274 cpm/ml and the “ATI dans les surnageants” value (virus HIV1; Chlorhexidine 0,01 %, J10) was 200 cpm/ml. For the same compound, the “ATI dans les surnageants” value (virus HIV1; Chlorhexidine 0,01 %, J13) was 250 cpm/ml, the “ATI dans les surnageants” value (virus HIV1; Chlorhexidine 0,01 %, J17) was 230 cpm/ml and the “ATI dans les surnageants” value (virus HIV1; Chlorhexidine 0,01 %, J20) was 272 cpm/ml. The “ATI dans les surnageants” value (virus HIV1; Chlorhexidine 0,01 %, J23) was 456 cpm/ml, the “ATI dans les surnageants” value (virus HIV1; Chlorhexidine 0,01 %, J27) was 420 cpm/ml and the “ATI dans les surnageants” value (virus HIV1; Chlorhexidine 0,01 %, J30) was 276 cpm/ml. The “ATI dans les surnageants” value (virus HIV1; Chlorhexidine 0,002 %, J3) was 252 cpm/ml, the “ATI dans les surnageants” value (virus HIV1; Chlorhexidine 0,002 %, J6) was 352 cpm/ml and the “ATI dans les surnageants” value (virus HIV1; Chlorhexidine 0,002 %, J10) was 1304 cpm/ml. For the same compound, the “ATI dans les surnageants” value (virus HIV1; Chlorhexidine 0,002 %, J13) was 1752 cpm/ml, the “ATI dans les surnageants” value (virus HIV1; Chlorhexidine 0,002 %, J17) was 4288 cpm/ml and the “ATI dans les surnageants” value (virus HIV1; Chlorhexidine 0,002 %, J20) was 6138 cpm/ml. The “ATI dans les surnageants” value (virus HIV1; Chlorhexidine 0,002 %, J23) was 4614 cpm/ml, the “ATI dans les surnageants” value (virus HIV1; Chlorhexidine 0,002 %, J27) was 1616 cpm/ml and the “ATI dans les surnageants” value (virus HIV1; Chlorhexidine 0,002 %, J30) was 4528 cpm/ml. The “ATI dans les surnageants” value (virus HIV1; Chlorhexidine 0,005 %, J3) was 360 cpm/ml, the “ATI dans les surnageants” value (virus HIV1; Chlorhexidine 0,005 %, J6) was 374 cpm/ml and the “ATI dans les surnageants” value (virus HIV1; Chlorhexidine 0,005 %, J10) was 580 cpm/ml. For the same compound, the “ATI dans les surnageants” value (virus HIV1; Chlorhexidine 0,005 %, J13) was 742 cpm/ml, the “ATI dans les surnageants” value (virus HIV1; Chlorhexidine 0,005 %, J17) was 1902 cpm/ml and the “ATI dans les surnageants” value (virus HIV1; Chlorhexidine 0,005 %, J20) was 1126 cpm/ml. The “ATI dans les surnageants” value (virus HIV1; Chlorhexidine 0,005 %, J23) was 1226 cpm/ml, the “ATI dans les surnageants” value (virus HIV1; Chlorhexidine 0,005 %, J27) was 528 cpm/ml and the “ATI dans les surnageants” value (virus HIV1; Chlorhexidine 0,005 %, J30) was 720 cpm/ml. The action virucide (virus HIV1; produit utilisé seul, 0,002) was “ne sont pas virucides”, the viability at 0.5 % (spermatozoïdes; 1 min, 1 Min, 5 % dans le sperme) was 77 ± 10.8% and the viability at 0.5 % (spermatozoïdes; 1 min, 1 Min, 10 % dans le sperme) was 77.2 ± 5.6%. The viability at 0.5 % (spermatozoïdes; 0.05 h, 3 Min, 5 % dans le sperme) was 78 ± 5.7% and the viability at 0.5 % (spermatozoïdes; 0.05 h, 3 Min, 10 % dans le sperme) was 75.5%.
